Data on 3 compounds can be found in patent KR20230001519A, “근위 단백질 변형 반응을 이용한 신규한 약물 결합 단백질의 동정” (서울대학교산학협력단, priority 2021, dated 2023).

Each structure is given as a SMILES string. Counter-ions that a name gives are not always drawn.

One assay deals with Ba/F3 cells (Ba/F3 세포). The assay can be described thus: CCK-8 growth inhibition, Ba/F3. The format is cell-based, mouse. To be noted: Ba/F3, 72 h.
Assay [1] relates to HaloTag protein (할로택 단백질). The assay can be described thus: In vitro competition assay of HaloTag ligand (dansyl-HTL, in-gel fluorescence). The format is binding. The following applies: competition with dansyl-HTL; purified HaloTag 10 μM, compound 10 μM; data not shown.
In another assay the test system is K562 cells (K562 세포). The assay can be described thus: CCK-8 growth inhibition, K562. The format is cell-based, human. To be noted: K562, 72 h.
Assay [2] concerns the target T1, BTK (Mus musculus, UniProt P35991). As to the kind of experiment: PL-IP biotinylation of BTK-mCherry. The format is cell-based.
In assay [3] the target is T2, BTK (Homo sapiens, UniProt Q06187).
T2 construct: endogenous in cells; host or cells: K562 stably expressing HT-V5-TurbID
The assay can be described thus: PROCID mass analysis, BTK. The format is cell-based.

The subject of assay [4] is HT-TurbID stably expressing K562 cells (HT-TurbID를 안정적으로 발현하는 K562 세포주). As to the kind of experiment: Biotinylation in K562 cells stably expressing HT-TurbID (streptavidin-HRP western blot). The format is cell-based, human.
The next assay has as its target T3, TOM20-HA-KDABL1 (Homo sapiens, UniProt P00519).
T3 construct: KDABL1, 아미노산 239-512, Uniprot ID: P00519; expressed in transfected cells
T3 sequence (P00519 239-512): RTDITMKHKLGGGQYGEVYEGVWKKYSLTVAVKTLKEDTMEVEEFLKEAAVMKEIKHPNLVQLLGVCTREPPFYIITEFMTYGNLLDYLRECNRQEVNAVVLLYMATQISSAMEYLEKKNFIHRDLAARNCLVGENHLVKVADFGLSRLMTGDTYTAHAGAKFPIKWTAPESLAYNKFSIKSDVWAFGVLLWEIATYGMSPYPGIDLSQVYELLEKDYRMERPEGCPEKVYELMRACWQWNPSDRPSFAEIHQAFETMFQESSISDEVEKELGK
As to the kind of experiment: Proximity biotinylation of TOM20-HA-KDABL1 by HT-TurbID. The format is cell-based. To be noted: HT-TurbID in cytosol; data not shown.

For a further assay, the system named is ABL1. As to the kind of experiment: PROCID mass analysis, ABL1. The following applies: ABL1, K562. The format is cell-based, Homo sapiens.
Another assay concerns the target T4, TOM20-KDABL1 (Homo sapiens, UniProt P00519).
T4 construct: KDABL1, 아미노산 239-512, Uniprot ID: P00519; expressed in transfected cells
T4 sequence (P00519 239-512): T3 sequence (P00519 239-512)
As to the kind of experiment: In cellulo mitochondrial translocation of HT-TurbID to TOM20-KDABL1. The format is cell-based. The following applies: data not shown.

The target of the next assay is T5, ABL2 (Homo sapiens, UniProt P42684).
T5 construct: endogenous in cells; host or cells: K562 stably expressing HT-V5-TurbID
As to the kind of experiment: PROCID mass analysis, ABL2. The format is cell-based. The following applies: ABL2, K562.

Assay [5] concerns dasatinib binding proteins of K562 cells (K562 세포의 다사티닙 결합 단백질). As to the kind of experiment: PROCID mass analysis of biotinylated proteins (dasatinib interactors, group I). The format is cell-based, Homo sapiens. To be noted: K562, 500 nM, 3 h.
For assay [6], the target named is T6, KDABL1 (Homo sapiens, UniProt P00519).
T6 sequence (P00519 239-512): T3 sequence (P00519 239-512)
As to the kind of experiment: Proximity biotinylation of HA-KDABL1 by HT-TurbID (PL-IP, western blot). The format is cell-based. The following applies: HEK293T, 500 nM, 3 h; biotin 100 μM, 30 min; SA-HRP western blot. Set-up: KDABL1, 아미노산 239-512, Uniprot ID: P00519; expressed in transfected cells; host or cells: HEK293T (PL-IP, A6).

The target of assay [7] is T6, KDABL1. As to the kind of experiment: In cellulo translocation assay of KDABL1 to mitochondrial HT-TurbID-MoA (confocal). The format is cell-based. To be noted: U2OS, 500 nM, 3 h. Set-up: KDABL1, 아미노산 239-512, Uniprot ID: P00519; expressed in transfected cells; host or cells: U2OS (translocation, A4).
The target in the next assay is T7, SMARCA2 (Homo sapiens, UniProt P51531).
T7 construct: endogenous in cells; host or cells: K562 stably expressing HT-V5-TurbID
As to the kind of experiment: PROCID mass analysis, SMARCA2. The format is cell-based.

Assay [8] addresses T8, CSK (Homo sapiens, UniProt P41240). As to the kind of experiment: PROCID mass analysis, CSK. The format is cell-based. Set-up: endogenous in cells; host or cells: K562 stably expressing HT-V5-TurbID.
Assay [9] addresses T1, BTK. As to the kind of experiment: In cellulo translocation assay, BTK-mCherry to HT-TurbID-MoA. The format is cell-based. On the set-up: host or cells: U2OS (translocation, A16; reproduced in COS-7).
For assay [10], the target named is T8, CSK. As to the kind of experiment: PL-IP biotinylation of CSK-EGFP. The format is cell-based.
Assay [11] concerns the target T8, CSK. The assay can be described thus: In cellulo translocation assay, CSK-EGFP to HT-TurbID-MoA. Set-up: host or cells: U2OS (translocation, A17; reproduced in COS-7). The format is cell-based.
For the next assay, the target named is T9, RIOK1 (Homo sapiens, UniProt Q9BRS2).
T9 construct: endogenous in cells; host or cells: K562 stably expressing HT-V5-TurbID
T9 sequence (Q9BRS2 1-568): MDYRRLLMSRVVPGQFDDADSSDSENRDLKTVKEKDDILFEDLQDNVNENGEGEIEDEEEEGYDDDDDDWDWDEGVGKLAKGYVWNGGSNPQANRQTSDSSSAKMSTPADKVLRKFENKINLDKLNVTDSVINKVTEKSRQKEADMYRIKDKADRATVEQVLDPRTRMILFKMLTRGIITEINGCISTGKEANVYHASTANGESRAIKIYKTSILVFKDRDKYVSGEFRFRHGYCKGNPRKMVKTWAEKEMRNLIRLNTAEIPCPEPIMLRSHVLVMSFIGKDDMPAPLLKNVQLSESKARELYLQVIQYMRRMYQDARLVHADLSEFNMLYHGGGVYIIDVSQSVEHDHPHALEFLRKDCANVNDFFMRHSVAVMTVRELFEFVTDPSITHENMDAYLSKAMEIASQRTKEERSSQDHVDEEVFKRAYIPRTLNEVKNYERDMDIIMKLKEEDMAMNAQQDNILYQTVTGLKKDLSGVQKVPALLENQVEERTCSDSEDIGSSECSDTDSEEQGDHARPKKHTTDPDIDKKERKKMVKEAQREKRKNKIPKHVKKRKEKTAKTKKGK
The assay can be described thus: PROCID mass analysis, RIOK1. The format is cell-based. The following applies: RIOK1, K562.

For a further assay, the target named is T10, ABDSMARCA2 (Homo sapiens, UniProt P51531).
T10 construct: ABD SMARCA2(736-901aa 헬리카제-ATP 결합 도메인)-HA; expressed in transfected cells; host or cells: HEK293-AD
The assay can be described thus: Translocation and PL-IP assays with ATP binding domain of SMARCA2. To be noted: concluded from translocation of ABDSMARCA2 to mitochondria-targeted HT-TurbID. The format is cell-based.

Assay [12] deals with T8, CSK. On the set-up: host or cells: U2OS (translocation, A17; reproduced in COS-7); HEK293T (PL-IP, A19). The following applies: in vitro characterization; cited from earlier work.
Setting [13] is: HEK293T, 3 h, SA-HRP western blot.

T8 sequence (P41240 whole entry): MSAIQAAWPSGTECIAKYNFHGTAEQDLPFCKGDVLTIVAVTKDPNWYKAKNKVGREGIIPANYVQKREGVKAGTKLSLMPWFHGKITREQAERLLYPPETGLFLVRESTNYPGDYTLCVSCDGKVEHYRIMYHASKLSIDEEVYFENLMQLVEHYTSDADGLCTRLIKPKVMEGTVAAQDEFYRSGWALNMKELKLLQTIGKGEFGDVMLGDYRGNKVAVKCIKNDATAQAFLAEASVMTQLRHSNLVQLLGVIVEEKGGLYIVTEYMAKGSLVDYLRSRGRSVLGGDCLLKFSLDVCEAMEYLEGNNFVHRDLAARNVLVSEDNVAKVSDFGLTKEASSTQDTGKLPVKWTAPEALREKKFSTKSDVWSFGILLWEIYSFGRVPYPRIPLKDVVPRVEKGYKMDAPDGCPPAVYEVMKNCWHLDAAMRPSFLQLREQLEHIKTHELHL
T1 sequence (P35991 whole entry): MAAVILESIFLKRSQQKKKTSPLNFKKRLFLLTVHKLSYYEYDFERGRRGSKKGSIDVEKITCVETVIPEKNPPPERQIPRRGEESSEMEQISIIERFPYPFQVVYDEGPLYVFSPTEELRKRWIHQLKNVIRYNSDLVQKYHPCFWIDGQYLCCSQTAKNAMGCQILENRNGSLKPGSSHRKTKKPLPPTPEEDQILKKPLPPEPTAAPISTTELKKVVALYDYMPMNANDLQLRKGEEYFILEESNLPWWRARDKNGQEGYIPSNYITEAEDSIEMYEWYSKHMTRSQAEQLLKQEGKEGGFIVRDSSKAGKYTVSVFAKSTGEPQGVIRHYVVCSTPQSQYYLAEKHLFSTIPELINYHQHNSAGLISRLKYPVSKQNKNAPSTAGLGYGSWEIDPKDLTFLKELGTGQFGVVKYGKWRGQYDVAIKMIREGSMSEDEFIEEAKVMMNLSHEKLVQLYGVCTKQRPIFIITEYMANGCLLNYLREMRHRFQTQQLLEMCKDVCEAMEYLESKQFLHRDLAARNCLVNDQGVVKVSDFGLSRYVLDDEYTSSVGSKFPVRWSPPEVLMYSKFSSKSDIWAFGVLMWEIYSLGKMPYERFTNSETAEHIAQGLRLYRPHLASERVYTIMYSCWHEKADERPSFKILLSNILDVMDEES
T7 sequence (P51531 whole entry): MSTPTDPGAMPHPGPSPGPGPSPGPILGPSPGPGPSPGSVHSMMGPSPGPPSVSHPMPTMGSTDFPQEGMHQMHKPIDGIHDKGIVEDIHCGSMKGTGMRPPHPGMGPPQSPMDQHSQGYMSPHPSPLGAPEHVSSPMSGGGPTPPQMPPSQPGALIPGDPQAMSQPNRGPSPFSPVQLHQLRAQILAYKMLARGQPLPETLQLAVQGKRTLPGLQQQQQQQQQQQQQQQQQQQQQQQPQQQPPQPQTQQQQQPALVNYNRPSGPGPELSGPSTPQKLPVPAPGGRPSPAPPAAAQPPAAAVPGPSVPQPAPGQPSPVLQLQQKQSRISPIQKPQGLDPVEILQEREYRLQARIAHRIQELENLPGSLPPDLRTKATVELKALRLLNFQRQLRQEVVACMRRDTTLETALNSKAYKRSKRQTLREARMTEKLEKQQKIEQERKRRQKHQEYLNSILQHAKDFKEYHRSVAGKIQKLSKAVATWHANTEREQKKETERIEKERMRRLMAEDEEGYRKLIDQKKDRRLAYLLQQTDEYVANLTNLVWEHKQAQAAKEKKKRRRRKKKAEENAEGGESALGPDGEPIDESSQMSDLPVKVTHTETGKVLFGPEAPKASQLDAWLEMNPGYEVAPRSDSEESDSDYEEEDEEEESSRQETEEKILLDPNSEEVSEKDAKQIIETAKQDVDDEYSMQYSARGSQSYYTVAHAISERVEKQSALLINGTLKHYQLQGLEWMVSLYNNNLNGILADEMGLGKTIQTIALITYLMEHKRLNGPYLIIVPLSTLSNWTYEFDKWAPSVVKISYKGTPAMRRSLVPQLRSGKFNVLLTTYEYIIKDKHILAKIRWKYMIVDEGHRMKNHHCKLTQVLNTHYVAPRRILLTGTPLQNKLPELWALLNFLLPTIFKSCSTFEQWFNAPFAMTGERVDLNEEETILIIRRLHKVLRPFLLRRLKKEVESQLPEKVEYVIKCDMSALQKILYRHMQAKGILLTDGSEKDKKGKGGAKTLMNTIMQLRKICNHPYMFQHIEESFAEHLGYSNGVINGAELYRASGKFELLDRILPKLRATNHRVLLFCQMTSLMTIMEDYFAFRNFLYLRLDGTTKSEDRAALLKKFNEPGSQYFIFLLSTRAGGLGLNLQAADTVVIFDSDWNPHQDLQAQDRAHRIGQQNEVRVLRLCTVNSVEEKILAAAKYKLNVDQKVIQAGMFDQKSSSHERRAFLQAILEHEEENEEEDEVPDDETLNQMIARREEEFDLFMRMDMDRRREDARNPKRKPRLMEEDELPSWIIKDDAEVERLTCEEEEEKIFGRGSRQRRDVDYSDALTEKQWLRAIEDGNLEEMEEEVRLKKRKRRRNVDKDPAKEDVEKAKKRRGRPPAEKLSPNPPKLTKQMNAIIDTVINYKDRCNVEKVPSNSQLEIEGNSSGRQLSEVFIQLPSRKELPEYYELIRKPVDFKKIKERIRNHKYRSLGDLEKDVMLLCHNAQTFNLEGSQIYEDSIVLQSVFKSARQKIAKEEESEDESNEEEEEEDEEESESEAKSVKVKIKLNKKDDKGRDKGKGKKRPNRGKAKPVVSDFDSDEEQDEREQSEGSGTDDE
T2 sequence (Q06187 whole entry): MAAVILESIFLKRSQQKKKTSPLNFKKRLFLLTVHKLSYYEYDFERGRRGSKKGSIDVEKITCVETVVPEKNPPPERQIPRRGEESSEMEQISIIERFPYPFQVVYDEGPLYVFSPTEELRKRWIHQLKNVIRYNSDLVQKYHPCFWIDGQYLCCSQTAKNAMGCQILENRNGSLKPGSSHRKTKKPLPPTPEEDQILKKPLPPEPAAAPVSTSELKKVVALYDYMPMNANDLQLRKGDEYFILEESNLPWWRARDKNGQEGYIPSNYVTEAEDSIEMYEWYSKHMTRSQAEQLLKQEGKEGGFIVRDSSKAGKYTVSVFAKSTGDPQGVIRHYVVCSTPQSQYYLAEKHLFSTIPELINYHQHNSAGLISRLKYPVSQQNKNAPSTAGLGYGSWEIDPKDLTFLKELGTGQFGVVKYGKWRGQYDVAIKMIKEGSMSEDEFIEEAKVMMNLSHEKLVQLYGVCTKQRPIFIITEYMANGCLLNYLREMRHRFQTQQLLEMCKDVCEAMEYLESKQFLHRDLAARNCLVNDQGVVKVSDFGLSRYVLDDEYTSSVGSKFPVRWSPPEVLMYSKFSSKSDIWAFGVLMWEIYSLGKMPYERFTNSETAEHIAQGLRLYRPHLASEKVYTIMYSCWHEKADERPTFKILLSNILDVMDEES
T10 sequence (P51531 736-901): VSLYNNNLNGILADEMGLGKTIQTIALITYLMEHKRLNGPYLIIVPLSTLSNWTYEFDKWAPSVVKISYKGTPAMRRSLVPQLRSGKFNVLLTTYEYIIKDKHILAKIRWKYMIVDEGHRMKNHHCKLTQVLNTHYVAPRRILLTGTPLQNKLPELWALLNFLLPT
T5 sequence (P42684 whole entry): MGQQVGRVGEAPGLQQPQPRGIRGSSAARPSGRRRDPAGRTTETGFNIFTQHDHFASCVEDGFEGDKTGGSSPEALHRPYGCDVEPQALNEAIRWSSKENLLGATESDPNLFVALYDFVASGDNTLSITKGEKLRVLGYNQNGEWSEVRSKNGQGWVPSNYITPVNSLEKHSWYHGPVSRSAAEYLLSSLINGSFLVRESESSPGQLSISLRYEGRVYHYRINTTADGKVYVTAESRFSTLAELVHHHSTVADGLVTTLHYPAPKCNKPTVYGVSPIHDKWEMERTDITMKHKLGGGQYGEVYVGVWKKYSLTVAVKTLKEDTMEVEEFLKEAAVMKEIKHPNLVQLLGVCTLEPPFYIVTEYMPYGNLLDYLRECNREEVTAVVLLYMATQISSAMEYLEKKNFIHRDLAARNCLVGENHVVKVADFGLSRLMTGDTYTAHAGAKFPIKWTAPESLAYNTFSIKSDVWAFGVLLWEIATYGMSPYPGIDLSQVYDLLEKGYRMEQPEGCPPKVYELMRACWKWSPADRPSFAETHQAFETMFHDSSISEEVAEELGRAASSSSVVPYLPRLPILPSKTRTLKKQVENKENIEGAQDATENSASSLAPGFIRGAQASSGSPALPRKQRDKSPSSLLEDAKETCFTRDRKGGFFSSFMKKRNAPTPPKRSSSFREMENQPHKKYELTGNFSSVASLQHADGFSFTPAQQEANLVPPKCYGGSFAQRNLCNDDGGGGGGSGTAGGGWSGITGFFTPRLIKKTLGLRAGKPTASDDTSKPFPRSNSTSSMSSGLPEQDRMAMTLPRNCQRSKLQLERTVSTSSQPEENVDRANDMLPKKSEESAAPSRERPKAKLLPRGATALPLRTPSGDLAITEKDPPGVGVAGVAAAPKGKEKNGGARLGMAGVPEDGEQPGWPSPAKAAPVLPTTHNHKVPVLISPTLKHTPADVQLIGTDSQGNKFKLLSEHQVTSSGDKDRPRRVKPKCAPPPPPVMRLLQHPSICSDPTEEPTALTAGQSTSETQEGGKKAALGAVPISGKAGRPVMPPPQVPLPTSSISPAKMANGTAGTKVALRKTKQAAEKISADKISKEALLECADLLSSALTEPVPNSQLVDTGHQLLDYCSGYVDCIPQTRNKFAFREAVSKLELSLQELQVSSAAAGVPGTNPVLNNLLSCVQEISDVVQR

Take `Cc1nc(Nc2ncc(C(=O)Nc3c(C)cccc3Cl)s2)cc(N2CCN(CCOC(=O)NCCOCCOCCOCCCCCCCl)CC2)n1` [DA3, 2-(4-(6-((5-((2-chloro-6-methylphenyl)carbamoyl)thiazol-2-yl)amino)-2-methylpyrimidin-4-yl)piperazin-1-yl)ethyl(2-(2-(2-((6-chlorohexyl)oxy)ethoxy)ethoxy)ethyl)carbamate trifluoroacetate salt]: the GI50 result with Ba/F3 cells (Ba/F3 세포) and in the assay with K562 cells (K562 세포) was “서브마이크로몰 범위” in each case. For the same compound, in [1], the “binding to HaloTag” value is recorded as “할로택에 잘 결합한다”.

For `Cc1nc(Nc2ncc(C(=O)Nc3c(C)cccc3Cl)s2)cc(N2CCN(CCOC(=O)NCCOCCOCCOCCOCCOCCCCCCCl)CC2)n1` [DA5, 2-(4-(6-((5-((2-chloro-6-methylphenyl)carbamoyl)thiazol-2-yl)amino)-2-methylpyrimidin-4-yl)piperazin-1-yl)ethyl(21-chloro-3,6,9,12,15-pentaoxahenicosyl)carbamate trifluoroacetate salt], the DA5-dependent biotinylation entry was “그대로 재현되었다” at BTK [2] (BTK, HT-TurbID-MoA instead of HT-TurbID, data not shown) and “그대로 재현되었다” on CSK [10] (CSK, HT-TurbID-MoA instead of HT-TurbID, data not shown). Besides, the “co-purification of HT-TurbID with bait protein” value on BTK [2] (BTK-mCherry, anti-HA pulldown) was “DA5 처리 샘플에서만 미끼 단백질과 공동 정제되었다”; on CSK [10] (CSK-EGFP, anti-HA pulldown), “DA5 처리 샘플에서만 미끼 단백질과 공동 정제되었다”. Also, the “biotinylation of enriched BTK-mCherry” value on BTK [2] (setting [13]) is given as “DA5 처리 하에서만 바이오틴화되었다”. Further, the “biotinylation by HT-TurbID in DA5 treated sample” value on BTK [3] (K562) is given as “고도로 바이오틴화”; in the assay on ABL1, “고도로 바이오틴화”; at ABL2, “고도로 바이오틴화”; on SMARCA2 (SMARCA2, K562), “고도로 바이오틴화”; on CSK [8] (K562), “고도로 바이오틴화”; on RIOK1, “고도로 바이오틴화”. Besides, the biotinylated lysine residues entry on BTK [3] (MS analysis) and at CSK [8] (MS analysis) was “다수의 라이신 잔기가 DA5 처리된 HT-TurbID에 의해 바이오틴화 된다” each time. For the same compound, the GI50 entry in the assay on Ba/F3 cells (Ba/F3 세포) and with K562 cells (K562 세포) was “서브마이크로몰 범위” each time. In assay [4], the biotinylation reaction result is recorded as “강력한 바이오틴화 반응”. For the same compound, the “streptavidin-HRP western blot pattern compared with DA and DMSO” value in assay [4] is recorded as “미묘하게 차이가 있었다”. Besides, the “biotinylation of TOM20-HA-KDABL1 by HT-TurbID” value at TOM20-HA-KDABL1 is reported as “재현 가능한 DA5 의존성 바이오틴화를 관찰”. In addition, the “mitochondrial translocation of HT-TurbID to TOM20-KDABL1” value on TOM20-KDABL1 is given as “미토콘드리아 전위가 확인되었다”. Further, the “number of proteins reproducibly biotinylated only on DA5 treatment” value in assay [5] (biotin 50 μM 30 min, P < 0.05, Log2(FC) > 1.2) is recorded as 33. The “number of proteins selected as dasatinib interactors (group I)” value in assay [5] (includes SMARCA2) turned out to be 34. At KDABL1 [6], the “biotinylation of KDABL1 by HT-TurbID” value is “DA5로 처리되었을 때만 KDABL1이 HT-TurbID에 의해 바이오틴화 된다”. Besides, the “translocation of KDABL1 from cytosol to mitochondria” value at KDABL1 [7] is “KDABL1의 효율적인 전위”. Also, the “fold change (FC) of biotinylation” value on SMARCA2 (SMARCA2, K562, DA5 treated vs control, highest fold change) was 5.14. The DA5-dependent translocation entry at BTK [9] (BTK, COS-7, data not shown) is listed as “그대로 재현되었다”; at CSK [11] (CSK, COS-7, data not shown), “그대로 재현되었다”. Moreover, the “Pearson's correlation coefficient” value on BTK [9] (BTK, U2OS, after DA5 treatment) is given as “급격히 증가”; on CSK [11] (CSK, U2OS, after DA5 treatment) it was “급격히 증가”. The “translocation from cytosol to mitochondria” value is given as “세포질에서 미토콘드리아로 전위되는 것이 확인되었다” at BTK [9] (BTK-mCherry, U2OS, 500 nM, 3 h) and “세포질에서 미토콘드리아로 전위되는 것이 확인되었다” at CSK [11] (CSK-EGFP, U2OS, 500 nM, 3 h). Moreover, the “binding to HaloTag” value in assay [1] was “할로택에 잘 결합한다”. In addition, the “biotinylation of enriched CSK-EGFP” value at CSK [10] (setting [13]) is listed as “DA5 처리 하에서만 바이오틴화되었다”.

For `Cc1nc(Nc2ncc(C(=O)Nc3c(C)cccc3Cl)s2)cc(N2CCN(CCO)CC2)n1` [다사티닙], the biotinylation reaction entry in assay [4] is “강력한 바이오틴화 반응”. Besides, the “physical binding affinity of ABDSMARCA2 for dasatinib” value at ABDSMARCA2 was “물리적 결합 친화성을 가지고 있으며”. On CSK [12], the “binding affinity for dasatinib” value is “다사티닙에 대한 결합 친화력이 있음”.
